Test results from patent US20050129621A1, “Aerosol formulations for pulmonary administration of medicaments to produce a systemic effect” (Chiesi Farmaceutici S.P.A., priority 2002, published 2005).
Like-named read-outs stand apart in the source and are kept apart here.

Legend:
[1] = Solubility studies in HFA pMDI formulations (visual assessment for crystal growth)
Protocol: The assembly of the pMDI cans was carried out using hand operated crimping and filling equipment. Formulations were prepared by accurately weighing the required quantity of drug into the can or vial. The appropriate volume of ethanol and the other co-solvent if required in the formulation, was then added. The valve was crimped onto the vial/can and the assembled vial/can was ultra-sonicated for approximately 10 minutes. The HFA propellant was filled through the valve and the pMDI was ultra-sonicated for a further 10 minutes. […] Final compositions were calculated as percentage w/v for the active ingredient and as percentage w/w for the co-solvents.
All solubility investigations were conducted in plastic coated glass pMDI vials fitted with continuous spray valves. Once produced the medicament-HFA solution pMDIs were stored in refrigerator at 4° C. (±0.1° C.). The pMDI vials were removed periodically and the vials assessed visually with the aid of a polarized light unit for crystal growth.

[2] = Cascade impaction studies (Andersen Cascade Impactor), aerosol delivery characteristics; type: physicochemical
Protocol: All impaction studies were conducted with formulations contained in cut edge anodised aluminium cans fitted with 50 μl or 100 μl valves. The studies were carried out using an Andersen Cascade Impactor (ACI) fitted with a USP XXII metal throat entry port.
The HFA solution formulations were discharged into the ACI through actuators having an orifice diameter from 0.14 to 0.45 mm. Deposition of the drug on each ACI plate was determined by high pressure liquid chromatography (HPLC).
MMAD values and corresponding geometric standard deviation (GSD) were calculated from plots of the cumulative percentage undersize of drug collected on each ACI plate (probit scale), against the upper cut off diameter for each respective ACI plate (log10 scale).
The following parameters were determined: the metered dose, which is the sum of the dose delivered through the Andersen apparatus plus the active ingredient residue deposited on the device actuator; the cumulative amount of active particles deposited on the various ACI stages; the amount on the actuator; the amount in the adaptor and in the throat (adp/throat); the fme particle dose or respirable dose (FPD) which is the amount of particles deposited on stages 3 to filter of the ACI and corresponds to the amount of particles of size less than 4.7 μm; the fine particle fraction or respirable fraction which is the ratio between the respirable dose and the dose delivered ex-actuator.
The cans were provided with actuators with an orifice diameter of 0.22 mm.
Two ACI deposition determinations were performed with each formulation. Twenty shots were discharged into the ACI.
The cans were provided with actuators with an orifice diameter of 0.14 mm.
Two ACI deposition determinations were performed with the formulation. Ten shots were discharged into the ACI.

[3] = Stability study of pMDI formulations in coated aluminum cans, HPLC; conditions: 25° C., six months
Protocol: The recovery of diisobutyryl apomorphine was determined by HPLC.
The leuprolide acetate content was determined by HPLC.

[4] = 0.5% and 1% w/v in HFA 134a, 5% w/w ethanol, 0.1% w/w glycerol, actuator orifice 0.22 mm
[5] = 0.04% w/v (40 μg/100 μl) in HFA 134a, 15% w/w ethanol, 2% w/w water, actuator orifice 0.14 mm
[6] = 0.08% w/v (80 μg/100 μl) in HFA 134a, 18% w/w ethanol, 3% w/w water, actuator orifice 0.14 mm

Row | SMILES | concentration at which formulations are soluble ([1]; in HFA 134a or HFA 227, various percentages of ethanol, stored at 4° C.) | MMAD [2, 4] | amount of active particles of sizes from 0.43 to 3.3 μm [2, 4] | fine particle fraction (FPF) [2, 4] | degradation ([3]; formulation of Example 1, coated aluminum cans upright and inverted) | difference between cans stored upright and inverted ([3]; formulation of Example 1, coated aluminum cans) | change of solubility when water was added [1] | concentration at which formulations are soluble [1] | MMAD [2, 5] | amount of active particles of sizes from 0.43 to 3.3 μm [2, 5] | fine particle fraction (FPF) [2, 5] | MMAD [2, 6] | amount of active particles of sizes from 0.43 to 3.3 μm [2, 6] | fine particle fraction (FPF) [2, 6]
1 | CC(C)C(=O)Oc1ccc2c(c1OC(=O)C(C)C)-c1cccc3c1[C@@H](C2)N(C)CC3 [diisobutyryl apomorphine] | up to 1 % w/v | about 2.0 μm | ≥ 60% | 70-75% | minimal degradation | no significant difference |  |  |  |  |  |  |  | 
2 | CCNC(=O)[C@@H]1CCCN1C(=O)[C@H](CCCNC(=N)N)NC(=O)[C@H](CC(C)C)NC(=O)[C@@H](CC(C)C)NC(=O)[C@H](Cc1ccc(O)cc1)NC(=O)[C@H](CO)NC(=O)[C@H](Cc1c[nH]c2ccccc12)NC(=O)[C@H](Cc1c[nH]cn1)NC(=O)[C@@H]1CCC(=O)N1 [leuprolide acetate] |  |  |  |  |  |  | significant increase | up to 0.26 % w/v | about 1.0 μm | ≥ 61% | at least 72% | about 1.3 μm | ≥ 52% | at least 59%
